From ChEMBL document CHEMBL1201862, “PubChem BioAssay data set” (2004)
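Values below derive from 48-hour exposures of cells grown in 96-well plates, with endpoints linearly interpolated between the two concentrations bracketing the appropriate inhibition level. GI50 marks 50% less growth.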 The source made the active and inactive calls. Rule as the data show it: active = GI50 up to about 1.1 µM and inactive = higher.

Legend:
Test in all cases: growth of human tumour cells (NCI), 48 h
A549 = test system: A549
DU-145 = test system: DU-145
EKVX = test system: EKVX
HCC 2998 = test system: HCC 2998
HCT-15 = test system: HCT-15
HOP-92 = test system: HOP-92
HT-29 = test system: HT-29
KM12 = test system: KM12
LOX IMVI = test system: LOX IMVI
MDA-MB-231 = test system: MDA-MB-231
NCI/ADR-RES = test system: NCI/ADR-RES
SF-295 = test system: SF-295
SF-539 = test system: SF-539
SK-MEL-28 = test system: SK-MEL-28
SK-MEL-5 = test system: SK-MEL-5
SW-620 = test system: SW-620
UACC-257 = test system: UACC-257
HL-60 = test system: HL-60
SK-MEL-2 = test system: SK-MEL-2

Row | Compound | GI50 (A549) | GI50 (DU-145) | GI50 (EKVX) | GI50 (HCC 2998) | GI50 (HCT-15) [µM] | GI50 (HOP-92) | GI50 (HT-29) | GI50 (KM12) | GI50 (LOX IMVI) | GI50 (MDA-MB-231) | GI50 (NCI/ADR-RES) | GI50 (SF-295) | GI50 (SF-539) | GI50 (SK-MEL-28) | GI50 (SK-MEL-5) | GI50 (SW-620) | GI50 (UACC-257) | GI50 (HL-60) | GI50 (SK-MEL-2)
1 | Fc1nc(-c2c3ccccc3c3sc4ccccc4n23)nc(N2CCOCCOCCOCCOCC2)n1 | > 100 µM (inactive) | > 100 µM (inactive) | > 100 µM (inactive) | > 100 µM (inactive) | > 100 | 20.9 µM (inactive) | 46.6 µM (inactive) | > 100 µM (inactive) | > 100 µM (inactive) | 86.9 µM (inactive) | 56.8 µM (inactive) | 63 µM (inactive) | 21.6 µM (inactive) | > 100 µM (inactive) | > 100 µM (inactive) | > 100 µM (inactive) | > 100 µM (inactive) | – | –
2 | N#CC(NNC(=O)c1c(Cl)c(Cl)c(Cl)c(Cl)c1-c1nc2cc(C(=O)c3ccccc3)ccc2[nH]1)c1cccc(Oc2ccccc2)c1 (stereo unspecified) | 30.9 µM (inactive) | 28.3 µM (inactive) | 15.8 µM (inactive) | – | 18.4 | 17.5 µM (inactive) | 27.4 µM (inactive) | 36.6 µM (inactive) | 37.8 µM (inactive) | 19 µM (inactive) | 19 µM (inactive) | 28.5 µM (inactive) | 20.7 µM (inactive) | 24.3 µM (inactive) | 15.4 µM (inactive) | 27.7 µM (inactive) | 38.1 µM (inactive) | 28.3 µM (inactive) | 20.5 µM (inactive)
3 | Nc1ncnc2c1ncn2[C@@H]1C[C@@H]1CO | > 100 µM (inactive) | – | > 100 µM (inactive) | > 100 µM (inactive) | > 100 | – | > 100 µM (inactive) | > 100 µM (inactive) | > 100 µM (inactive) | > 100 µM (inactive) | > 100 µM (inactive) | > 100 µM (inactive) | > 100 µM (inactive) | – | – | > 100 µM (inactive) | > 100 µM (inactive) | > 100 µM (inactive) | > 100 µM (inactive)
4 | CCOP(=O)(CN1CCNCCN(CP(=O)(OCC)OCC)CC1)OCC | > 100 µM (inactive) | > 100 µM (inactive) | > 100 µM (inactive) | – | > 100 | > 100 µM (inactive) | > 100 µM (inactive) | > 100 µM (inactive) | > 100 µM (inactive) | > 100 µM (inactive) | > 100 µM (inactive) | > 100 µM (inactive) | > 100 µM (inactive) | > 100 µM (inactive) | > 100 µM (inactive) | > 100 µM (inactive) | > 100 µM (inactive) | – | > 100 µM (inactive)
5 | COc1cc(NC(C)=O)ccc1C(=O)N/N=C/c1ccc(Cl)cc1Cl | 48 µM (inactive) | 26.3 µM (inactive) | 32.7 µM (inactive) | 57.1 µM (inactive) | 83 | 35.4 µM (inactive) | > 100 µM (inactive) | 33 µM (inactive) | 69.2 µM (inactive) | – | > 100 µM (inactive) | 57 µM (inactive) | 87.7 µM (inactive) | 59.4 µM (inactive) | 77.3 µM (inactive) | > 100 µM (inactive) | 27 µM (inactive) | 46.6 µM (inactive) | 19.2 µM (inactive)
6 | Cc1ncc(CSC(=N)N)n1Cc1ccccc1 | > 100 µM (inactive) | 22.5 µM (inactive) | 96.8 µM (inactive) | – | > 100 | > 100 µM (inactive) | 55.8 µM (inactive) | > 100 µM (inactive) | – | > 100 µM (inactive) | > 100 µM (inactive) | 63.7 µM (inactive) | 43.6 µM (inactive) | > 100 µM (inactive) | 82.6 µM (inactive) | 45.5 µM (inactive) | 29.7 µM (inactive) | – | > 100 µM (inactive)
7 | COc1cc2c(cn1)[nH]c1ccccc12 | > 100 µM (inactive) | – | > 100 µM (inactive) | > 100 µM (inactive) | > 100 | > 100 µM (inactive) | > 100 µM (inactive) | > 100 µM (inactive) | > 100 µM (inactive) | – | – | > 100 µM (inactive) | > 100 µM (inactive) | 67.5 µM (inactive) | 47.4 µM (inactive) | 46.3 µM (inactive) | 85.1 µM (inactive) | > 100 µM (inactive) | > 100 µM (inactive)
8 | [O-][n+]1c2ccccc2[n+]([O-])c2ccccc21 | 38 µM (inactive) | 45.4 µM (inactive) | > 100 µM (inactive) | – | 68.2 | – | 86.3 µM (inactive) | – | > 100 µM (inactive) | 44.5 µM (inactive) | > 100 µM (inactive) | > 100 µM (inactive) | > 100 µM (inactive) | > 100 µM (inactive) | 37.5 µM (inactive) | > 100 µM (inactive) | > 100 µM (inactive) | 11.5 µM (inactive) | > 100 µM (inactive)
9 | S=C(Nc1ccc(Cl)cc1)c1ccc(CN2CCCCC2)s1 | 0.811 µM (active) | 19.8 µM (inactive) | 12.3 µM (inactive) | 7.16 µM (inactive) | 4.72 | – | 3.5 µM (inactive) | 5.43 µM (inactive) | 2.48 µM (inactive) | – | 16.8 µM (inactive) | – | 24.9 µM (inactive) | 4.24 µM (inactive) | 3.08 µM (inactive) | 4.4 µM (inactive) | 10.6 µM (inactive) | 1.81 µM (inactive) | 25.1 µM (inactive)
10 | Nc1ccc2c(c1)Cc1ccccc1-2 | 65 µM (inactive) | – | 37.1 µM (inactive) | > 100 µM (inactive) | 62.2 | 28.9 µM (inactive) | > 100 µM (inactive) | 41.5 µM (inactive) | 80.7 µM (inactive) | > 100 µM (inactive) | > 100 µM (inactive) | > 100 µM (inactive) | 73.6 µM (inactive) | > 100 µM (inactive) | 66.2 µM (inactive) | > 100 µM (inactive) | > 100 µM (inactive) | 36.6 µM (inactive) | 99.8 µM (inactive)
11 | O=[N+]([O-])c1ccc2c3c1[C@@H]1O[C@@H]1c1cccc(c1-3)[C@@H]1O[C@H]21 | 6.76 µM (inactive) | 3.1 µM (inactive) | 6.35 µM (inactive) | – | 2.57 | 9.46 µM (inactive) | 3.48 µM (inactive) | 2.72 µM (inactive) | 1.27 µM (inactive) | 6.44 µM (inactive) | 4.91 µM (inactive) | 11 µM (inactive) | 2.02 µM (inactive) | 3.1 µM (inactive) | 10.7 µM (inactive) | 2.72 µM (inactive) | 6.87 µM (inactive) | 3.1 µM (inactive) | 6.14 µM (inactive)
12 | CCOC(=O)c1c(C)n(C)c2c1cc(O)c1[nH]c3c(c12)CCCC3 | 18 µM (inactive) | 22.8 µM (inactive) | 17.6 µM (inactive) | – | 27.2 | 0.0185 µM (active) | 18.8 µM (inactive) | 15 µM (inactive) | 14.5 µM (inactive) | 17.1 µM (inactive) | 17.9 µM (inactive) | 39.1 µM (inactive) | 19.2 µM (inactive) | 17.5 µM (inactive) | 12.3 µM (inactive) | 20.8 µM (inactive) | 3.61 µM (inactive) | 21.6 µM (inactive) | 18.5 µM (inactive)
13 | O=c1c2cc3c(=O)n4c(cc(-c5ccccc5)c5cc(Cl)ccc54)nc3cc2nc2cc(-c3ccccc3)c3cc(Cl)ccc3n12 | > 100 µM (inactive) | > 100 µM (inactive) | 75.3 µM (inactive) | > 100 µM (inactive) | > 100 | > 100 µM (inactive) | > 100 µM (inactive) | > 100 µM (inactive) | > 100 µM (inactive) | 39.4 µM (inactive) | > 100 µM (inactive) | > 100 µM (inactive) | > 100 µM (inactive) | > 100 µM (inactive) | > 100 µM (inactive) | > 100 µM (inactive) | > 100 µM (inactive) | – | > 100 µM (inactive)
14 | COc1ccc2c(c1)c(=O)c1c(NCCCN(C)CCCNc3ccc4c(=O)n(CCN(C)C)c(=O)n5c6ccc(OC)cc6c(=O)c3c45)ccc3c(=O)n(CCN(C)C)c(=O)n2c31 | < 0.01 µM (active) | < 0.012 µM (active) | 0.188 µM (active) | < 0.01 µM (active) | < 0.0258 | – | < 0.01 µM (active) | < 0.01 µM (active) | < 0.01 µM (active) | 0.0614 µM (active) | – | < 0.0169 µM (active) | 0.08 µM (active) | 0.415 µM (active) | – | < 0.01 µM (active) | 0.352 µM (active) | 0.0914 µM (active) | 0.514 µM (active)
15 | CCn1c(=O)ccc2ccc(N(CCO)CCO)nc21 | > 100 µM (inactive) | > 100 µM (inactive) | > 100 µM (inactive) | > 100 µM (inactive) | > 100 | – | > 100 µM (inactive) | > 100 µM (inactive) | – | > 100 µM (inactive) | > 100 µM (inactive) | > 100 µM (inactive) | – | > 100 µM (inactive) | > 100 µM (inactive) | > 100 µM (inactive) | > 100 µM (inactive) | – | > 100 µM (inactive)
16 | CC(C)(C)c1ccc(-c2nc3ccccc3c(=O)o2)cc1 | 27.9 µM (inactive) | 59.7 µM (inactive) | 30.7 µM (inactive) | 54.8 µM (inactive) | 37.5 | 28 µM (inactive) | 42 µM (inactive) | 29.1 µM (inactive) | 18.7 µM (inactive) | – | 55.2 µM (inactive) | 23.8 µM (inactive) | 40.6 µM (inactive) | 42.5 µM (inactive) | 17 µM (inactive) | 48.2 µM (inactive) | 81.3 µM (inactive) | 23.1 µM (inactive) | 22.8 µM (inactive)
17 | C[C@@H](NC(C#N)c1ccco1)c1ccccc1 (stereo partly specified) | > 100 µM (inactive) | > 100 µM (inactive) | > 100 µM (inactive) | 32.7 µM (inactive) | > 100 | 30.4 µM (inactive) | > 100 µM (inactive) | > 100 µM (inactive) | – | – | > 100 µM (inactive) | > 100 µM (inactive) | > 100 µM (inactive) | > 100 µM (inactive) | > 100 µM (inactive) | > 100 µM (inactive) | > 100 µM (inactive) | > 100 µM (inactive) | –
